Patent US20110092515A1, “MELT GRANULATION PROCESS” (priority 2008, published 2011)

Experiment: Relative solubility of the physical forms
Assay type: physicochemical
Details: monohydrate as impurity in the anhydrous form

Compound: CC(O)C(=O)O.CN1CCN(c2ccc3nc(-c4c(N)c5c(F)cccc5[nH]c4=O)[nH]c3c2)CC1 [monohydrate form, 4-amino-5-fluoro-3-[5-(4-methylpiperazin-1-yl)-1H-benzimidazol-2-yl]quinolin-2(1H)-one lactic acid salt]
- solubility compared with the anhydrous form: less soluble
